Source: US20070020193A1, “Dronabinol compositions and methods for using same” (priority 2005, published 2007)
Marks after values point to notes of the source that are not given here.

Test: Example 2 multiple rising dose inhaled delta-9-THC study: plasma pharmacokinetics
Details: for AUC(0-t) / AUC(0-inf) / Cmax / half-life / Tmax: human, plasma; for AUC(0-t): AUC(0-8)
Method: A randomized, double-blind, placebo-controlled, multiple rising dose safety, tolerability, pharmacokinetic and pharmacodynamic study to assess two dose levels of inhaled delta-9-THC was conducted. Dose levels were studied in ascending order. Two consecutive groups (n=9/group) of healthy subjects were studied (Groups I and II). […] There was a lapse of at least 10 days between the groups for interim safety and pharmacokinetic analysis. Two dose levels were studied in ascending order. […] Subjects in each treatment Group (I or II) received single and multiple doses of inhaled delta-9-THC according to the following schedule:
For both dose levels, the first and the last dose of study drug was given under fasted conditions. Subjects were confined to the study site from the evening of Day −2 (Day 1 is the day of administration of the first dose of study drug) until the 120-hour blood sample following the final dose of study drug, resulting in an 18-day confinement period for subjects in Group I and a 25-day confinement period for Group II. Between the completion of Group I and the start of Group II, an interim safety and pharmacokinetic analysis was performed. Based on the results of the interim analyses, the dose level for investigation in Group II was determined.
Two MDI dosage strengths were used corresponding to the same formulations used in Example 1: one delivering 0.3 mg delta-9-THC (or placebo) per actuation and one delivering 1.2 mg delta-9-THC (or placebo) per actuation. The MDI consisted of a pressurized (via propellants) container and a metered-dose valve. The propellants provided the necessary force to expel the drug, and also acted as a solvent and diluent. The canister unit was provided within a mouthpiece (oral adapter), to expel an exact amount of drug, in the proper particle size distribution, upon each actuation. Two basic formulations containing 0.3 and 1.2 mg of delta-9-THC per 50 μL were developed with propellant 1,1,1,2 tetrafluoroethane 134a (HFA 134a), and ethanol as solvent. The formulations were made in accordance with the composition used in Example 1.
Whole blood samples were collected according to the assessment flowchart in EDTA tubes through venepuncture or indwelling catheter. Samples were immediately placed on ice and subsequently centrifuged within 30 minutes at 1,500 g for 10 minutes. Plasma was transferred into a 5 ml screw cap polypropylene tube, stoppered and stored at below minus 20° C. until transfer to the analytical laboratory for analysis. […] The measurement ranges were 0.05-30 ng/ml for delta-9-THC, 0.04-30 ng/ml for 11-OH-THC, and 0.25-10 ng/ml for THC-COOH.
For Example 2: The statistical analysis encompassed an exploratory analysis of the single and multiple dose pharmacokinetics and dose proportionality of two dose levels of inhaled delta-9-THC in healthy subjects. Descriptive statistics included number of subjects, mean, standard deviation, coefficient of variation (%) and geometric mean for all pharmacokinetic parameters.
The exploratory analysis was performed on the logarithms of the dose-normalized pharmacokinetic parameters AUC(0-inf), AUC(0-t), AUC(0-τ) and Cmax. Dose proportionality was tested both at single dose and at multiple dose (steady state) by comparing the dose groups for all pharmacokinetic parameters by an analysis of variance with dose as fixed effect.
Dose proportionality was tested by the contrast between the dose groups. For this contrast on the logarithmic scale, p-values were given. After anti-logarithmic transformation, the resultant ratios of geometric means and 90% confidence intervals were given.
Accumulation was tested by comparing the steady state values for AUC(0-τ) with the single dose values for AUC(0-τ) by a mixed model analysis of variance with dose and day (with levels single dose and steady state) as fixed effects and subject within dose as random effect.

[1] = inhaled, 1.2 mg, Arithmetic Mean (SD), 1.2 mg m.d., Day 12, Group I
[2] = inhaled, 1.2 mg, Arithmetic Mean (SD), 1.2 mg s.d., Day 1
[3] = inhaled, 1.2 mg, Geometric Mean (Range), 1.2 mg s.d., Day 1
[4] = inhaled, 3.6 mg, Arithmetic Mean (SD), 3.6 mg m.d., Day 19, Group II
[5] = inhaled, 3.6 mg, Arithmetic Mean (SD), 3.6 mg s.d., Day 1
[6] = inhaled, 3.6 mg, Geometric Mean (Range), 3.6 mg s.d., Day 1

CCCCCc1cc(O)c2c(c1)OC(C)(C)[C@@H]1CCC(C)=C[C@@H]21 [delta-9-THC, delta-9-tetrahydrocannabinol]
achievement of steady state (1.2 mg delta-9-THC three times daily): apparently reached after six days of dosing
accumulation during multiple dosing (8-hours dosing interval): no statistically significant accumulation
Ratio AUC(0-8) m.d./AUC(0-8) s.d. (Accumulation factor), Mean (Group I, 1.2 mg): 0.85
Ratio AUC(0-8) m.d./AUC(0-inf) s.d. (Linearity), Mean (Group I, 1.2 mg): 0.79
Ratio AUC(0-8) m.d./AUC(0-8) s.d. (Accumulation factor), Mean (Group II, 3.6 mg): 1.15
Ratio AUC(0-8) m.d./AUC(0-inf) s.d. (Linearity), Mean (Group II, 3.6 mg): 1.02
dose proportionality: geometric mean ratio (3.6 mg:1.2 mg) of dose-normalized AUC(0-8) (90% confidence interval) (Multiple dose): 1.10 (0.55-2.18)
dose proportionality: geometric mean ratio (3.6 mg:1.2 mg) of dose-normalized Cmax (90% confidence interval) (Multiple dose): 1.81 (0.52-6.24)
dose proportionality: geometric mean ratio (3.6 mg:1.2 mg) of dose-normalized AUC(0-8) (90% confidence interval) (Single dose): 0.77 (0.50-1.18)*
dose proportionality: geometric mean ratio (3.6 mg:1.2 mg) of dose-normalized AUC(0-inf) (90% confidence interval) (Single dose): 0.79 (0.51-1.23)
dose proportionality: geometric mean ratio (3.6 mg:1.2 mg) of dose-normalized AUC(0-t) (90% confidence interval) (Single dose): 0.81 (0.52-1.25)
dose proportionality: geometric mean ratio (3.6 mg:1.2 mg) of dose-normalized Cmax (90% confidence interval) (Single dose): 0.71 (0.38-1.37)
dose proportionality of pharmacokinetic parameters (after single or multiple dose administration): not found to deviate significantly
plasma concentration-time curve, elimination profile (both dose levels): at least a bi-phasic elimination profile
systemic absorption (both dose levels, inhaled): rapid systemic absorption
AUC(0-t) [1]: 0.00574 µg·h/mL
AUC(0-t) [2]: 0.00661 µg·h/mL
AUC(0-t) (inhaled, 1.2 mg, Geometric Mean (Range), 1.2 mg m.d., Day 12, Group I): 0.00452 µg·h/mL
AUC(0-t) [3]: 0.0061 µg·h/mL
AUC(0-inf) [2]: 0.00714 µg·h/mL
AUC(0-inf) [3]: 0.00655 µg·h/mL
Cmax [1]: 0.0123 µg/mL
Cmax (inhaled, 1.2 mg, Arithmetic Mean (SD), 1.2 mg s.d., Day 1, plasma): 0.024 µg/mL
Cmax (inhaled, 1.2 mg, Geometric Mean (Range), 1.2 mg m.d. (three times daily), Day 12, Group I): 0.0069 µg/mL
Cmax (inhaled, 1.2 mg, Geometric Mean (Range), 1.2 mg s.d., Day 1, plasma): 0.0197 µg/mL
half-life (inhaled, 1.2 mg, terminal elimination half-life, multiple dosing): 24 h
Tmax (inhaled, 1.2 mg, tmax, Arithmetic Mean (SD), 1.2 mg m.d., Day 12, Group I): 3.6 min
Tmax (inhaled, 1.2 mg, tmax, Arithmetic Mean (SD), 1.2 mg s.d., Day 1): 2.4 min
Tmax (inhaled, 1.2 mg, tmax, median (range), 1.2 mg m.d., Day 12, Group I): 3.6 min
Tmax (inhaled, 1.2 mg, tmax, median (range), 1.2 mg s.d., Day 1): 1.8 min
half-life (inhaled, 1.2 mg, t½, Arithmetic Mean (SD), 1.2 mg m.d., Day 12, Group I): 29.1 h
half-life (inhaled, 1.2 mg, t½, Arithmetic Mean (SD), 1.2 mg s.d., Day 1): 4.02 h
half-life (inhaled, 1.2 mg, t½, Geometric Mean (Range), 1.2 mg m.d., Day 12, Group I): 25.3 h
half-life (inhaled, 1.2 mg, t½, Geometric Mean (Range), 1.2 mg s.d., Day 1): 3.39 h
AUC(0-t) [4]: 0.0158 µg·h/mL
AUC(0-t) [5]: 0.0147 µg·h/mL
AUC(0-t) (inhaled, 3.6 mg, Geometric Mean (Range), 3.6 mg m.d., Day 19, Group II): 0.0149 µg·h/mL
AUC(0-t) [6]: 0.014 µg·h/mL
AUC(0-inf) [5]: 0.0163 µg·h/mL
AUC(0-inf) [6]: 0.0156 µg·h/mL
Cmax [4]: 0.0404 µg/mL
Cmax (inhaled, 3.6 mg, Arithmetic Mean (SD), 3.6 mg s.d., Day 1, plasma): 0.0447 µg/mL
Cmax (inhaled, 3.6 mg, Geometric Mean (Range), 3.6 mg m.d. (three times daily), Day 19, Group II): 0.0374 µg/mL
Cmax (inhaled, 3.6 mg, Geometric Mean (Range), 3.6 mg s.d., Day 1, plasma): 0.0425 µg/mL
half-life (inhaled, 3.6 mg, Terminal elimination half-lives (summary estimate), summary, best estimated after multiple dosing): ~93 h
half-life (inhaled, 3.6 mg, terminal elimination half-life, multiple dosing): 93 h
Tmax (inhaled, 3.6 mg, tmax, Arithmetic Mean (SD), 3.6 mg m.d., Day 19, Group II): 2.4 min
Tmax (inhaled, 3.6 mg, tmax, Arithmetic Mean (SD), 3.6 mg s.d., Day 1): 4.8 min
Tmax (inhaled, 3.6 mg, tmax, median (range), 3.6 mg m.d., Day 19, Group II): 1.8 min
Tmax (inhaled, 3.6 mg, tmax, median (range), 3.6 mg s.d., Day 1): 4.8 min
half-life (inhaled, 3.6 mg, t½, Arithmetic Mean (SD), 3.6 mg m.d., Day 19, Group II): 94.8 h
half-life (inhaled, 3.6 mg, t½, Arithmetic Mean (SD), 3.6 mg s.d., Day 1): 6.41 h
half-life (inhaled, 3.6 mg, t½, Geometric Mean (Range), 3.6 mg m.d., Day 19, Group II): 92.9 h
half-life (inhaled, 3.6 mg, t½, Geometric Mean (Range), 3.6 mg s.d., Day 1): 6.01 h
Tmax (inhaled, Tmax range, both dose levels, after single and multiple dose administration): 1.8 to 4.8 min
ratios of AUC(0-8) after multiple dosing versus AUC(0-inf) after single dose (linearity) (in vivo): did not deviate clearly or significantly from unity
Cmax and AUC values versus dose (single and multiple dose administration, 1.2 and 3.6 mg): Dose-related increases
